Test results: patent publication US4690935A, “Inhibition of tumor growth and metastasis with calcium channel blocker compounds” (Wayne State University, priority 1983, dated 1987)

Assays:
B16a Tumor Cells = test: 3H-thymidine incorporation into DNA of cultured B16a tumor cells; format: cell-based, mouse; conditions: for effect on 3H-thymidine incorporation (in words): B16a tumor cell DNA
Description: ^3 H-thymidine incorporation studies were designed to measure the effects of BAY e 9736, nimodipine on the incorporation of ^3 H-thymidine into the DNA of B16a tumor cells. One ml of cultured B16a tumor cells (in MEM+10% fetal calf serum) at 1×10^5 cells/ml are placed into plastic incubation tubes. The cells are incubated for 15 minutes at 37° C. in the presence of five microliters of dilutent (DMSO, dimethyl sulfoxide) alone or dilutent containing BAY e 9736. After 15 minutes, which is considered the preincubation period, the cells are incubated for one hour (at 37° C.) in the presence of one microcurie (per ml) ^3 H-thymidine. The assay is terminated by the addition of one milliliter of cold trichloroacetic acid, TCA, (6% w/v). The cells are centrifuged at 10,000×g ×4 minutes. The supernatant is discarded. The resulting pellet is resuspended in one milliliter of TCA, vortexed and then repelleted by centrifugation at 10,000 ×g ×4 minutes. The supernatant is discarded. The pellets are resuspended in 100 microliters of tissue solubilizing fluid (NCS from Amersham Corporation) and incubated for 2 hours at 50° C. Fifty microliter aliquots of the solubilized pellets are transferred into plastic scintillation vials containing 3 milliliters of scintillation fluid (Econofluor, New England Nuclear), allowed to cool and dark adjust, and counted.
A variation of the previously described experiment was used to determine the effects of BAY e 9736 on a different parameter of tumor cell proliferation, the replication of deoxyribonucleic acid (DNA) as measured by the incorporation of ^3 H-thymidine into tumor cell DNA. B16a tumor cells were grown in T-75 flasks and removed using trypsin, as previously described for Walker 256 L-Pam tumor cells. The B16a cells are quenched, washed, and resuspended in media (MEM+10% fetal calf serum, FCS) to a concentration of 1×10^5 cells/ml. One milliliter of tumor cells are placed into 5 ml plastic incubation tubes, and five microliters of media, dilutant, or dilutant containing 8, 4, or 2 milligram/ml BAY e 9736 are added to appropriate tubes. The assay was run, terminated, and the B16a tumor cell DNA extracted and counted as previously described.
Protocol same as previously described except nifedipine (40 mg) is first dissolved in absolute ethanol (0.5 ml) and then diluted with PEG-400 (1.5 ml) to a final concentration of 20 mg/ml. One microliter of the 20 mg/ml nifedipine solution was added to one ml of B16a tumor cells (for final concentration of 20 micrograms/ml). Nimodipine was dissolved as previously described.

Platelet [1] = test: Tumor cell (B16a) induced platelet aggregation (TCIPA); format: cell-based, human; conditions: for effect on tumor cell induced platelet aggregation (in words): 400 micrograms/ml to 0.4 micrograms/ml
Description: (§1) Blood (45 ml) was drawn from the […] vein of healthy, fasted, aspirin free (at least two weeks) human volunteers into a plastic syringe containing 5 ml of 4.8% dextrose with 50 U/ml heparin buffered by 25 mM HEPES, pH 7.5. An 18 gauge needle was used to prevent hemolysis. The heparinized blood was gently mixed by inverting the syringe five times and then the blood was transfused into two 40 ml plastic centrifuge tubes and centrifuged for 10 min at 163×g. The resulting platelet rich plasma (PRP; the supernatant fraction) was decanted using an adjustable SMI pipette set at 6 ml. Platelet poor plasma (PPP) was prepared by centrifugation of PRP for 10 min at 1086×g. Platelet poor plasma was used to standardize the platelet concentration in PRP to 3×10^8 /ml. Platelet concentrations were determined using a Coulter Model ZBI cell counter.
(§2) Platelet aggregation was measured photometrically using a Sienco Model DP-247E dual channel aggregometer and recorded on a Sienco Model B-5000 dual channel recorder. Aliquots of PRP (250 microliters at 3×10^8 platelets/ml) were transferred into aggregometry cuvettes and stirred at a constant speed of 800 RPM at 37° C. Platelet aggregation studies were designed and run as individually controlled samples. BAY e 9736 was dissolved in either PEG-400 or […] (DMSO).
(§3) BAY e 9736 in PEG-400 alone was aliquoted into the cuvettes prior to the addition of the PRP. Immediately after the addition of the PRP, the cuvettes were placed into the aggregometer. After two minutes (to allow for the stabilization of the platelet preparation and mixing of the BAY e 9736), ADP or tumor cells were added in 20 microliter aliquots to induce platelet aggregation.
A 20 milligram sample of BAY e 9736 was dissolved in 1 ml of polyethylene glycol (PEG-400) and serially diluted with PEG-400 to 2, 0.2 and 0.02 mg/ml concentrations using PEG-400. Tumor cell induced platelet aggregation (TCIPA) studies were performed as described previously. The effect of BAY e 9736 on TCIPA was determined by the mixing of 2 or 5 microliter aliquots of 20, 2, 0.2 or 0.02 mg/ml BAY e 9736 and the platelet rich plasma (PRP) for approximately 3 minutes prior to the addition of tumor cells.

Platelet [2] = test: ADP induced platelet aggregation; format: cell-based, human; conditions: for effect on ADP induced platelet aggregation (in words): higher concentrations
Description: as §1, §2, §3
Adenosine diphosphate (ADP) was prepared as a 1 mM solution (in distilled water). A 25 microliter aliquot was added to control and BAY e 9736 treated cuvettes containing PRP. The ADP concentration used induces rapid, monophasic platelet aggregation.

COCCOC(=O)C1=C(C)NC(C)=C(C(=O)OC(C)C)C1c1cccc([N+](=O)[O-])c1 (stereo not drawn) [BAY e 9736, 1,4-dihydro-2,6-dimethyl-4-(3' nitrophenyl)-pyridine-3-(beta-methyoxyethylester)-5-(isopropyl ester)]
effect on 3H-thymidine incorporation (in words) (B16a Tumor Cells): inhibited the incorporation of ^3 H-thymidine into the tumor cell DNA
effect on 3H-thymidine incorporation (in words) (B16a Tumor Cells; listed as nimodipine): decreases the rate of incorporation of ^3 H-thymidine into tumor cell DNA
activity at 10 µg/mL (B16a Tumor Cells; Mus musculus, .01 mg/ml, 15 min preincubation, 1 hour incorporation, x ± SEM, n = 4, read-out: % of Control Tumor Cell Incorporation (3H-thymidine)): 77 ± 2.5%
activity at 20 µg/mL (B16a Tumor Cells; Mus musculus, .02 mg/ml, 15 min preincubation, 1 hour incorporation, x ± SEM, n = 4, read-out: % of Control Tumor Cell Incorporation (3H-thymidine)): 56 ± 3.5%
activity at 40 µg/mL (B16a Tumor Cells; Mus musculus, .04 mg/ml, 15 min preincubation, 1 hour incorporation, x ± SEM, n = 4, read-out: % of Control Tumor Cell Incorporation (3H-thymidine)): 38 ± 4%
% Inhibition of Tumor Cell Induced Platelet Aggregation (Platelet [1]; 0.00015 mg/ml final): No effect
% Inhibition of Tumor Cell Induced Platelet Aggregation (Platelet [1]; 0.004 mg/ml final (second line so printed, below 0.0015)): No effect
effect on tumor cell induced platelet aggregation (in words) (Platelet [1]): does inhibit TCIPA
effect on tumor cell induced platelet aggregation (in words) (Platelet [1]; listed as nimodipine): greatly inhibit platelet aggregation induced by tumor cells
inhibition at 1.5 µg/mL (Platelet [1]; Homo sapiens, Platelet, 0.0015 mg/ml final, x ± SEM, n = 3): 12 ± 4.1%
inhibition at 4 µg/mL (Platelet [1]; Homo sapiens, Platelet, 0.004 mg/ml final, x ± SEM, n = 3): 19 ± 5.9%
inhibition at 15 µg/mL (Platelet [1]; Homo sapiens, Platelet, 0.015 mg/ml final, x ± SEM, n = 3): 32 ± 3.5%
inhibition at 40 µg/mL (Platelet [1]; Homo sapiens, Platelet, 0.04 mg/ml final, x ± SEM, n = 3): 55 ± 7.7%
inhibition at 150 µg/mL (Platelet [1]; Homo sapiens, Platelet, 0.15 mg/ml final, x ± SEM, n = 3): 67 ± 8.5%
inhibition at 400 µg/mL (Platelet [1]; Homo sapiens, Platelet, 0.4 mg/ml final, x ± SEM, n = 3): 85 ± 9.6%
effect on platelet aggregation, dissolved in PEG-400 vs DMSO (Platelet [1]; preliminary aggregometry studies): no statistically significant differences
% Inhibition of ADP Induced Platelet Aggregation (Platelet [2]; 0.0015 mg/ml final, 0.1 mM ADP): No effect
% Inhibition of ADP Induced Platelet Aggregation (Platelet [2]; 0.004 mg/ml final (second line so printed, below 0.0015), 0.1 mM ADP): No effect
% Inhibition of ADP Induced Platelet Aggregation (Platelet [2]; 0.004 mg/ml final, 0.1 mM ADP): No effect
inhibition at 15 µg/mL (Platelet [2]; Homo sapiens, Platelet, 0.015 mg/ml final, 0.1 mM ADP, printed "No effect to 12%"): ≤ 12%
inhibition at 40 µg/mL (Platelet [2]; Homo sapiens, Platelet, 0.04 mg/ml final, 0.1 mM ADP, x ± SEM, n = 3): 31 ± 6.2%
inhibition at 150 µg/mL (Platelet [2]; Homo sapiens, Platelet, 0.15 mg/ml final, 0.1 mM ADP, x ± SEM, n = 3): 58 ± 11%
inhibition at 400 µg/mL (Platelet [2]; Homo sapiens, Platelet, 0.4 mg/ml final, 0.1 mM ADP, x ± SEM, n = 3): 69 ± 7.5%
effect on ADP induced platelet aggregation (in words) (Platelet [2]): able to significantly inhibit this aggregation
effect on ADP induced platelet aggregation (in words) (Platelet [2]; listed as nimodipine): greatly inhibit platelet aggregation induced by tumor cells and ADP
